In patent US9890185B2, “Urea derivatives useful as kinase inhibitors” (Respivert Limited, priority 2013, dated 2018) one finds IC50 data, which are given here for 14 compounds.

In one assay the target is c-Src (Homo sapiens (Human), UniProt P12931). Kind of assay: c-Src enzyme inhibition (FRET, Z-LYTE). It is filed as biochemical. Summed up:
(§1)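 Fluorescence-ratio kinase assay: 2 hr compound–enzyme preincubation at RT, 1 hr reaction with ATP added as 800 μM (c-Src) or 60 μM (Syk) solution. IC50 derived from percent inhibition curves.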

The next assay deals with Syk (Homo sapiens (Human), UniProt P43405). The assay is described as follows: Syk enzyme inhibition (FRET, Z-LYTE). It is filed as biochemical. Summed up: as §1
The next assay deals with GSK 3α (Homo sapiens (Human), UniProt P49840). The assay is described as follows: GSK 3α enzyme inhibition (FRET, Z-LYTE, Method 2). It is filed as biochemical. The note with it: read-out: IC50 Values for Enzyme Inhibition, GSK3α. Summed up: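 Recombinant human GSK3α was preincubated with compound (stocks 4, 0.4, 0.04 or 0.004 μg/mL) at RT, 2 hr for Method 1 and 105 min for Method 2. FRET peptide (8 μM stock) and ATP (40 μM stock) were added for 1 hr, then protease development for 1 hr. IC50 was taken from concentration–response curves.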

A further assay relates to HT29 cells. The assay is described as follows: IL-1β-induced IL-8 release in HT29 cells (assay d). Format: cell-based. As to conditions: Homo sapiens, HT-29; IL-1β-stimulated HT29 cells; read-out: IC50 Values for Inhibition of Cytokine Release, HT29 cells IL-8. The protocol: HT29 cells, a human colon adenocarcinoma cell line, are plated in a 96 well plate (24 hrs) and pre-treated with compounds at the desired concentration for 2 hours before addition of 5 ng/mL of IL-1β (Abcam) for 24 hours. Supernatants are harvested for IL-8 quantification by Sandwich ELISA (Duo-set, R&D System). The IC50 is determined from the dose response curve.

pIC50: −log10 of the molar value.

Chain of GSK 3α (P49840 whole entry): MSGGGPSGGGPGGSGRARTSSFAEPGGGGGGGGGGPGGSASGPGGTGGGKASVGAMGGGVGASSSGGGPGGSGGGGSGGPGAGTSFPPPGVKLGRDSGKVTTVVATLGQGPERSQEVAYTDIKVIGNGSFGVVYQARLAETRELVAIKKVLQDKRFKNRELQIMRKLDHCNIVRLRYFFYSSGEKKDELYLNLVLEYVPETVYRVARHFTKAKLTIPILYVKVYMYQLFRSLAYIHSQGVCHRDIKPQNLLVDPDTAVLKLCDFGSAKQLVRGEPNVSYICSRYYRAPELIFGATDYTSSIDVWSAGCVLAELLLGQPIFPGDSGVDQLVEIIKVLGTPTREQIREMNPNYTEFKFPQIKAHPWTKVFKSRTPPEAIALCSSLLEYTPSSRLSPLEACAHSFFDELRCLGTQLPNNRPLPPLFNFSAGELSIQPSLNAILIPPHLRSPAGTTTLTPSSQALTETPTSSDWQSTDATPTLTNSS
Chain of c-Src (P12931 whole entry, looked up): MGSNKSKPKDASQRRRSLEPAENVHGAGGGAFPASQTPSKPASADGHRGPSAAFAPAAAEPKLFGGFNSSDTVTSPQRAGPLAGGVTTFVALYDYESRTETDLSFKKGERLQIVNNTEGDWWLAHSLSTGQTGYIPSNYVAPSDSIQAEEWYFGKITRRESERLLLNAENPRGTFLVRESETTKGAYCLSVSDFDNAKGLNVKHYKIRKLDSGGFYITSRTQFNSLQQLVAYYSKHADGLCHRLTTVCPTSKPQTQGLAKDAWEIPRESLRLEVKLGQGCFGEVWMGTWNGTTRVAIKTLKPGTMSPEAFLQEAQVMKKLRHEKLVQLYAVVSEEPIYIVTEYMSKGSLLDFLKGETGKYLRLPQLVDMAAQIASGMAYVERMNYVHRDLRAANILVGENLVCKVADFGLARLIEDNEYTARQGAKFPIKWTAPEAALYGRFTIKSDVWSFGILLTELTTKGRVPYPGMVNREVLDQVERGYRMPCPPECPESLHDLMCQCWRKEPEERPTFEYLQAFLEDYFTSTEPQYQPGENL

With `COCCOCCOCCOc1cc(Nc2cc(Oc3ccc(NC(=O)Nc4cc(C(C)(C)C)cc(P(C)(C)=O)c4OC)c4ccccc34)ccn2)cc(OC)c1` [Example 2, 1-(5-(tert-Butyl)-3-(dimethylphosphoryl)-2-methoxyphenyl)-3-(4-((2-((3-methoxy-5-(2-(2-(2-methoxyethoxy)ethoxy)ethoxy)phenyl)amino)pyridin-4-yl)oxy)naphthalen-1-yl)urea], the pIC50 is 7.96 at c-Src, 7.28 on Syk, 5.55 on GSK 3α and 8.77 with HT29 cells.

Consider `C#Cc1cc(Nc2cc(Oc3ccc(NC(=O)Nc4cc(C(C)(C)C)cc(P(C)(C)=O)c4OC)c4ccccc34)ccn2)cc(C(=O)NCCOCCOCCOC)c1` [Example 3, 3-((4-((4-(3-(5-(tert-Butyl)-3-(dimethylphosphoryl)-2-methoxyphenyl)ureido)naphthalen-1-yl)oxy)pyridin-2-yl)amino)-5-ethynyl-N-(2-(2-(2-methoxyethoxy)ethoxy)ethyl)benzamide], for which the negative logarithm of the IC50 (pIC50) against c-Src was 7.42; against Syk, below 5.91; at GSK 3α, 5.31; in the assay with HT29 cells, 7.84.

As for `COCCOCCOCCOc1cc(Nc2nccc(Oc3ccc(NC(=O)Nc4cc(C(C)(C)C)cc(OCP(C)(C)=O)c4OC)c4ccccc34)n2)cc(OC)c1` [Example 6, 1-(5-(tert-Butyl)-3-((dimethylphosphoryl)methoxy)-2-methoxyphenyl)-3-(4-((2-((3-methoxy-5-(2-(2-(2-methoxyethoxy)ethoxy)ethoxy)phenyl)amino)pyrimidin-4-yl)oxy)naphthalen-1-yl)urea], the pIC50 against c-Src is 7.80; against Syk it was 7.24; on GSK 3α, 5.92; with HT29 cells, 8.28.

In the case of `COCCOCCOCCOc1cc(Nc2cc(Oc3ccc(NC(=O)Nc4cc(C(C)(C)C)cc(P(C)(C)=O)c4)c4ccccc34)ccn2)cc(OC)c1` [Example 10, 1-(3-(tert-Butyl)-5-(dimethylphosphoryl)phenyl)-3-(4-((2-((3-methoxy-5-(2-(2-(2-methoxy-ethoxy)ethoxy)ethoxy)phenyl)amino)pyridin-4-yl)oxy)naphthalen-1-yl)urea], the pIC50 against c-Src was 7.80; against Syk, below 6.05; on GSK 3α it was below 5.08; with HT29 cells it was 8.09.

In the case of `COc1c(NC(=O)Nc2ccc(Oc3ccnc(Nc4ccccc4)c3)c3ccccc23)cc(C(C)(C)C)cc1P(C)(C)=O` [Example 11, 1-(5-(tert-Butyl)-3-(dimethylphosphoryl)-2-methoxyphenyl)-3-(4-((2-(phenylamino)pyridin-4-yl)oxy)naphthalen-1-yl)urea], the pIC50 at c-Src was 7.49; on Syk it was 6.73; at GSK 3α, 5.42; in the assay on HT29 cells, 7.80.

As for `COc1c(CC(N)=O)cc(C(C)(C)C)cc1NC(=O)Nc1ccc(Oc2ccnc(Nc3ccccc3)c2)c2ccccc12` [Example 13, 2-(5-(tert-Butyl)-2-methoxy-3-(3-(4-((2-(phenylamino)pyridin-4-yl)oxy)naphthalen-1-yl)ureido)phenyl)acetamide], the pIC50 was 6.62 at c-Src, 5.86 against Syk, 5.12 at GSK 3α and 7.74 with HT29 cells.

Take `COCCOCCOCCOc1cc(Nc2cc(Oc3ccc(NC(=O)Nc4cc(C(C)(C)C)cc(C(=O)NCCN5CCOCC5)c4OC)c4ccccc34)ccn2)cc(OC)c1` [Example 16, 5-(tert-Butyl)-2-methoxy-3-(3-(4-((2-((3-methoxy-5-(2-(2-(2-methoxyethoxy)ethoxy)ethoxy)-phenyl)amino)pyridin-4-yl)oxy)naphthalen-1-yl)ureido)-N-(2-morpholinoethyl)benzamide]: the pIC50 against c-Src was 7.40; against Syk, 7.03; on GSK 3α, 5.25; in the assay on HT29 cells, 8.82.

With `COCCOCCOCCOc1cc(Nc2cc(Oc3ccc(NC(=O)Nc4cc(C(C)(C)C)cc([S+](C)[O-])c4OC)c4ccccc34)ccn2)cc(OC)c1` (centres unmarked) [Example 17, 1-(5-(tert-Butyl)-2-methoxy-3-(methylsulfinyl)phenyl)-3-(4-((2-((3-methoxy-5-(2-(2-(2-methoxyethoxy)ethoxy)ethoxy)phenyl)amino)pyridin-4-yl)oxy)naphthalen-1-yl)urea], the pIC50 on c-Src is 7.52; against Syk, 6.87; on GSK 3α, 4.99; in the assay with HT29 cells, 8.70.

With `COc1c(CS(C)(=O)=O)cc(C(C)(C)C)cc1NC(=O)Nc1ccc(Oc2ccnc(Nc3ccccc3)c2)c2ccccc12` [Example 19, 1-(5-(tert-Butyl)-2-methoxy-3-((methylsulfonyl)methyl)phenyl)-3-(4-((2-(phenylamino)pyridin-4-yl)oxy)naphthalen-1-yl)urea], the pIC50 was 6.84 against c-Src, 6.72 against Syk, below 4.80 on GSK 3α and 8.07 with HT29 cells.

Turning to `COc1cc(Nc2nccc(Oc3ccc(NC(=O)Nc4cc(C(C)(C)C)cc(OCP(C)(C)=O)c4OC)c4ccccc34)n2)cc(OC)c1` [Example 20, 1-(5-(tert-Butyl)-3-((dimethylphosphoryl)methoxy)-2-methoxyphenyl)-3-(4-((2-((3,5-dimethoxyphenyl)amino)pyrimidin-4-yl)oxy)naphthalen-1-yl)urea], the pIC50 against c-Src is 7.48; at Syk it was 6.73; on GSK 3α, 5.69; in the assay on HT29 cells, 8.48.

Take `COc1cc(Nc2cc(Oc3ccc(NC(=O)Nc4cc(C(C)(C)C)cc([S+](C)[O-])c4OC)c4ccccc34)ccn2)cc(OC)c1` (centres unmarked) [Example 40, 1-(5-(tert-Butyl)-2-methoxy-3-(methylsulfinyl)phenyl)-3-(4-((2-((3,5-dimethoxyphenyl)amino)pyridin-4-yl)oxy)naphthalen-1-yl)urea]: the pIC50 is 7.11 on c-Src, 6.70 on Syk, below 4.82 on GSK 3α and 8.52 in the assay on HT29 cells.

On to `COc1cccc(Nc2cc(Oc3ccc(NC(=O)Nc4cc(C(C)(C)C)cc([S+](C)[O-])c4OC)c4ccccc34)ccn2)c1` (centres unmarked) [Example 41, 1-(5-(tert-Butyl)-2-methoxy-3-(methylsulfinyl)phenyl)-3-(4-((2-((3-methoxyphenyl)amino)pyridin-4-yl)oxy)naphthalen-1-yl)urea], for which the pIC50 is 7.14 at c-Src, 6.61 on Syk, 4.99 at GSK 3α and 8.66 in the assay on HT29 cells.

On to `COc1cccc(Nc2cc(Oc3ccc(NC(=O)Nc4cc(C(C)(C)C)cc(CNC(C)=O)c4OC)c4ccccc34)ccn2)c1` [Example 43, N-(5-(tert-Butyl)-2-methoxy-3-(3-(4-((2-((3-methoxyphenyl)amino)pyridin-4-yl)oxy)naphthalen-1-yl)ureido)benzyl)acetamide], for which the pIC50 is 7.27 at c-Src, 6.88 against Syk, 5.11 at GSK 3α and 8.43 with HT29 cells.

Take `COc1cc(Nc2cc(Oc3ccc(NC(=O)Nc4cc(C(C)(C)C)cc(CNC(C)=O)c4OC)c4ccccc34)ccn2)cc(OC)c1` [Example 44, N-(5-(tert-Butyl)-3-(3-(4-((2-((3,5-dimethoxyphenyl)amino)pyridin-4-yl)oxy)naphthalen-1-yl)ureido)-2-methoxybenzyl)acetamide]: the pIC50 was 7.17 at c-Src, 7.02 on Syk, below 4.82 at GSK 3α and 8.28 with HT29 cells.
